Assay results reported in patent publication US9808466B2, “Macrocyclic compounds as protein kinase inhibitors” (Fundación Centro Nacional de Investigaciones Oncologicas …, priority 2011, dated 2017).
Like-named read-outs stand apart in the source and are kept apart here.

Tests used:
PIM-1 = target: T1, PIM-1 (Homo sapiens, UniProt P11309); test: PIM-1 biochemical assay (ADP Hunter); details: PIM1
T1 construct: histidine tag (C); made in house
Method in brief: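 Recombinant His-tagged human PIM-1 (50 pg/μl) with PIMtide peptide (60 μM) and 100 μM ATP in HEPES pH 7.4 buffer with MgCl2, 60 min at 30° C, DMSO below 2%. ADP formed detected by coupled ADP Hunter reaction as resorufin fluorescence (Ex 544/Em 580 nm).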

[1] = Pharmacokinetic in BALB-c female mice, i.v. and oral; assay type: in vivo; details: mouse, plasma; for half-life: read-out: T½ last (plasmatic half life) (converted); for clearance: read-out: Cl (plasmatic clearance) (converted); for MRT: read-out: MRT (Mean residence time); for Vd: read-out: Vd (volume of distribution); for bioavailability: read-out: F % (bioavailability); for Cmax: read-out: C max (maximum plasma concentration after oral administration)
Protocol: Experiments were done using BALB-c female mice, 10 weeks old. Compounds were dissolved in selected vehicles at a concentration calculated in order to administer the dose selected in 0.1 mL. Animals were administered by i.v and oral route (by gavage), and sacrificed at different time points (n=3 at each time point). Time points were 0.08, 0.25, 0.5, 1, 4 and 8 h for the i.v branch, and 0.08, 0.16, 0.25, 0.5, 1, 4, 8 and 24 h for oral branch. Blood was collected and processed for plasma which was analyzed and quantified by means of tandem mass spectrometry coupled with liquid chromatography. Pharmacokinetic parameters were estimated by fitting the experimental data to a compartmental model using Winnonlin software for pharmacokinetic analysis.

PI3K (p110α/p85α) = target: T2, PI3K (p110α/p85α) (Homo sapiens, UniProt P42336); test: PI3K activity assay (ADP Hunter Plus); assay type: biochemical
T2 construct: purchased Carna Biosciences 07CBS-0402A
Method in brief: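 ADP accumulation measured by coupled fluorescence (ex 544/em 580 nm) after a 1 h kinase reaction at 25 °C, then 30 min at 37 °C with detection reagents. Activity normalised to no-compound control (100%) and IC50 from sigmoid dose-response fit.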

mTOR = target: T3, mTOR (Homo sapiens, UniProt P42345); test: mTOR assay (LanthaScreen kinase activity assay); assay type: biochemical
T3 construct: purchased Invitrogen PV4754

[2] = read-out: PIM-1 activity, IC50 (semi-quantitative class)
[3] = po, P.O dose 10.00 mg/Kg vs I.V 5.00 mg/Kg
[4] = read-out: PI3K alpha activity, IC50 (semi-quantitative class)
[5] = read-out: PI3K alpha actual IC50 (in parentheses)
[6] = read-out: mTOR activity, IC50 (semi-quantitative class)
[7] = read-out: mTOR actual IC50 (in parentheses)

T2 sequence (P42336 whole entry): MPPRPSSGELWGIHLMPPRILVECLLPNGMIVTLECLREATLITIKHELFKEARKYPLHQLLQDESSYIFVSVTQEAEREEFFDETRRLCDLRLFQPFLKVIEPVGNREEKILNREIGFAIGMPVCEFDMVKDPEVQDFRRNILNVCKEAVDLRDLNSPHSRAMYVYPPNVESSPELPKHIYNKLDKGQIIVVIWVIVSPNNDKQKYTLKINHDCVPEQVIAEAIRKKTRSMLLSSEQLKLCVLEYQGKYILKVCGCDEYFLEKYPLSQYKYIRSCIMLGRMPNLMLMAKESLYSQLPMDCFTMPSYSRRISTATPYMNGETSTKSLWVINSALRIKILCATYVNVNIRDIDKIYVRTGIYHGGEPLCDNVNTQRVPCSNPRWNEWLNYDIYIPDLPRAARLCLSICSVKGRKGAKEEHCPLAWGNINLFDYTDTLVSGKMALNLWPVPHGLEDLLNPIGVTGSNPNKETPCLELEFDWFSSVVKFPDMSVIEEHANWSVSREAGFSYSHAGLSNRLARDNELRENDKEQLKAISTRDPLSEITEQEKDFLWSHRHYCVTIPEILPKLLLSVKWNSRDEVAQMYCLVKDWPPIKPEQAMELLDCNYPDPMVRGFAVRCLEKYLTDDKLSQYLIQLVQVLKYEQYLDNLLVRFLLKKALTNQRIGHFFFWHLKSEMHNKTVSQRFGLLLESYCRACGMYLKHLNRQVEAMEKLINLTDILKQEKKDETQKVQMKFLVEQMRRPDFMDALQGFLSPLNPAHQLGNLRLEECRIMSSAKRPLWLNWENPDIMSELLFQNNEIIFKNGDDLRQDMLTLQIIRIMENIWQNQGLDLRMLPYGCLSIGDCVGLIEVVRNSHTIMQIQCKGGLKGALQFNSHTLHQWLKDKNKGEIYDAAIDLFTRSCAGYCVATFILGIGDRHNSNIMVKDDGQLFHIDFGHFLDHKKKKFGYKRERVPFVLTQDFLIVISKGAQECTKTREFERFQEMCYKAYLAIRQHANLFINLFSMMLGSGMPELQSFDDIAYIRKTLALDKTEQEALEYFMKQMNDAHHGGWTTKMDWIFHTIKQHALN
T2 sequence (P27986 whole entry partner): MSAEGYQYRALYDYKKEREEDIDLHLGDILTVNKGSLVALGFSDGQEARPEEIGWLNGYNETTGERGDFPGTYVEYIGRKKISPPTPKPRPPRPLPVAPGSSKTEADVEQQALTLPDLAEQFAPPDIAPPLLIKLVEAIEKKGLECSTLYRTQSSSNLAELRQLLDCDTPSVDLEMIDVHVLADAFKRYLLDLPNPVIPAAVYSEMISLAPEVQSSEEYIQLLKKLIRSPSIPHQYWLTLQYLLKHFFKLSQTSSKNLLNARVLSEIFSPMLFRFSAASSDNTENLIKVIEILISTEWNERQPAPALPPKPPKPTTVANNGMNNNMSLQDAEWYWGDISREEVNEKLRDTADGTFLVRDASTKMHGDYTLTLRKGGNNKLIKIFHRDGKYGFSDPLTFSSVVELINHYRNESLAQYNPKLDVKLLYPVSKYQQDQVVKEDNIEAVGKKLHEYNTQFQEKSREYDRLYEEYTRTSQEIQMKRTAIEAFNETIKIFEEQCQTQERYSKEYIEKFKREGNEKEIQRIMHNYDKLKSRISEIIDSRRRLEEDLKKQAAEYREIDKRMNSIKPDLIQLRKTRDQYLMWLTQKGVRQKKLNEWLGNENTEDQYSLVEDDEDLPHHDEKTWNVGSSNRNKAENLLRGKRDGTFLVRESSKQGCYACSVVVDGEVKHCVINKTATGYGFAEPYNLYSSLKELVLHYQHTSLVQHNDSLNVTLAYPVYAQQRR
T1 sequence (P11309 whole entry): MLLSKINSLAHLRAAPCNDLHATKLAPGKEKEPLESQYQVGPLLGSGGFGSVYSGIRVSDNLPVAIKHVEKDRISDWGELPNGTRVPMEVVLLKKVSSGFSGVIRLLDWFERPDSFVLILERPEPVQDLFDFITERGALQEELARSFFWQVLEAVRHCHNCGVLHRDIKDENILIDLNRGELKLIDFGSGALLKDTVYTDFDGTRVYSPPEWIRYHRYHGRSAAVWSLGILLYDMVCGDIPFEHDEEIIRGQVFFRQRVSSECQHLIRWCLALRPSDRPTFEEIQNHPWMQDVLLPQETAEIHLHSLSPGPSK
T3 sequence (P42345 1360-2549 limits assumed): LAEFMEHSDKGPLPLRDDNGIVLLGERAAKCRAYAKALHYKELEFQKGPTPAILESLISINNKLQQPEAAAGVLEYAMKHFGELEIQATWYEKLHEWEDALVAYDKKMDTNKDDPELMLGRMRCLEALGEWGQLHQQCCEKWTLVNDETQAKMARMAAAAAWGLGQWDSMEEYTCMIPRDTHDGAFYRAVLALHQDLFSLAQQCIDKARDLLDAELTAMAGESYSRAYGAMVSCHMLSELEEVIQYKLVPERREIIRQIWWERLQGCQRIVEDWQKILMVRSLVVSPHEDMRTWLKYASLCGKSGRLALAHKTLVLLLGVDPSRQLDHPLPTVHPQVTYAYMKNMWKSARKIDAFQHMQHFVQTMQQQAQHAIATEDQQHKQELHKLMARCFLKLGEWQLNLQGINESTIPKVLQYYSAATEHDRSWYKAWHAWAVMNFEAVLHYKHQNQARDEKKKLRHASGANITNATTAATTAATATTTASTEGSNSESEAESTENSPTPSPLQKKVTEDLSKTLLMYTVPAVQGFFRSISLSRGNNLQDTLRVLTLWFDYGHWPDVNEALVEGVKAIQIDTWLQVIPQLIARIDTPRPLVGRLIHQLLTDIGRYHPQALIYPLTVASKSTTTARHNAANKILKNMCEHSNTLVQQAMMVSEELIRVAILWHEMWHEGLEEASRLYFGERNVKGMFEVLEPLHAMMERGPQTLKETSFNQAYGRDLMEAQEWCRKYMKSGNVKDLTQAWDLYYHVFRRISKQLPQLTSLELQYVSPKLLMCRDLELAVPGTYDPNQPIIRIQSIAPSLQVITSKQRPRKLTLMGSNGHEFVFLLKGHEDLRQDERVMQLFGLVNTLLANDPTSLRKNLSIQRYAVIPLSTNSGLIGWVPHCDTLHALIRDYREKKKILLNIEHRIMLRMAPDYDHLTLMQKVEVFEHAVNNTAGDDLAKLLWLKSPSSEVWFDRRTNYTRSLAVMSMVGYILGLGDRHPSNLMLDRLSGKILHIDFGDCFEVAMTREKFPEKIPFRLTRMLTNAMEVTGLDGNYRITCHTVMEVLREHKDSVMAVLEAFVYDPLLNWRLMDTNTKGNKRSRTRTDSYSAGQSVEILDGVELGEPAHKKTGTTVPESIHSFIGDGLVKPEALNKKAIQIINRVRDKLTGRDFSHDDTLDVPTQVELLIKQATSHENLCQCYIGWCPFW

Row | SMILES | IC50 (PIM-1; [2]) [nM] | AUC(0-inf) ([1]; iv, I.V, dose 5.00 mg/Kg) [ng·h/mL] | half-life ([1]; iv, I.V, dose 5.00 mg/Kg) [min] | clearance ([1]; iv, I.V, dose 5.00 mg/Kg) [mL/min/kg] | MRT ([1]; iv, I.V, dose 5.00 mg/Kg) [h] | Vd ([1]; iv, I.V, dose 5.00 mg/Kg) [L/kg] | bioavailability [1, 3] [%] | AUC(0-inf) ([1]; po, P.O, dose 10.00 mg/Kg) [ng·h/mL] | Cmax ([1]; po, P.O, dose 10.00 mg/Kg) [ng/mL] | IC50 (PI3K (p110α/p85α); [4]) [nM] | IC50 (PI3K (p110α/p85α); [5]) [nM] | IC50 (mTOR; [6]) [nM] | IC50 (mTOR; [7]) [nM] | further results
1 | COc1ncc2cc1NS(=O)(=O)c1cccc(c1)C(=O)NCc1cccc(c1)-c1cnn3ccc-2nc13 [compound 16] | > 1000 | 23600 | 134 | 4.5 | 3.33 | 0.99 | 123 | 29200 | 4820 | < 100 | 0.9 | < 100 | 4 | –
2 | COc1ncc2cc1NS(=O)(=O)c1cccc(c1)C(=O)NCc1cncc(c1)-c1ccnc3ccc-2nc13 [compound 31] | > 1000 | 8930 | 23.4 | 11.5 | 0.81 | 0.56 | 34 | 6080 | 1640 | < 100 | 2 | < 100 | 23 | –
3 | COc1ncc2cc1NS(=O)(=O)c1cccc(c1)C(=O)NCCn1cc(cn1)-c1ncnc3ccc-2cc13 [compound 33] | > 1000 | 9160 | 175 | 10 | 1.87 | 1.12 | 48.1 | 8810 | 1270 | < 100 | 1.3 | < 100 | 4.8 | –
4 | COc1ncc2cc1NS(=O)(=O)c1cccc(c1)C(=O)N1CCc3ccc(cc3C1)-c1ccnc3ccc-2cc13 [compound 39] | > 1000 | – | – | – | – | – | – | – | – | < 100 | 0.05 | < 100 | 0.3 | AUC(0-inf) ([1]; iv, I.V, dose 1.00 mg/Kg): 4460 ng·h/mL; half-life ([1]; iv, I.V, dose 1.00 mg/Kg): 99.6 min; clearance ([1]; iv, I.V, dose 1.00 mg/Kg): 4.17 mL/min/kg; MRT ([1]; iv, I.V, dose 1.00 mg/Kg): 2.39 h; Vd ([1]; iv, I.V, dose 1.00 mg/Kg): 0.59 L/kg; bioavailability ([1]; po, P.O dose 3.00 mg/Kg vs I.V 1.00 mg/Kg): 26.8%; AUC(0-inf) ([1]; po, P.O, dose 3.00 mg/Kg): 3580 ng·h/mL; Cmax ([1]; po, P.O, dose 3.00 mg/Kg): 962 ng/mL
5 | COc1ncc2cc1NS(=O)(=O)c1cccc(c1)C(=O)NCC1=CC=C(S1)c1ncnc3c1SC2=C3C [compound 68] | < 100 | 16600 | 189 | 0.667 | 10.9 | 0.49 | 34.5 | 57300 | 2930 | < 100 | 2.5 | < 100 | 90 | IC50 (PIM-1; read-out: PIM-1 actual IC50 (in parentheses)): 28 nM
